From patent US20240116985A1, “STAPLED PEPTIDES AND METHODS THEREOF” (priority 2020, published 2024)
In brackets after ≈: the same amount, converted by molar mass. Like-named read-outs stand apart in the source and are kept apart here.

Assays:
CHI Log D procedure = type: physicochemical; conditions: pH 7.4, CHI Log D
[1] = target: T1, beta-catenin/TCF4 engagement (Homo sapiens, UniProt P35222); assay: Nano-BRET target engagement assay (B-cat-Halo & TCF4-Luc in HEK293 cells); type: cell-based; conditions: absolute IC50; read-out: NanoBRET Abs IC50
T1 construct: expressed in transfected cells; host or cells: HEK293
T1 sequence (P35222 1-781): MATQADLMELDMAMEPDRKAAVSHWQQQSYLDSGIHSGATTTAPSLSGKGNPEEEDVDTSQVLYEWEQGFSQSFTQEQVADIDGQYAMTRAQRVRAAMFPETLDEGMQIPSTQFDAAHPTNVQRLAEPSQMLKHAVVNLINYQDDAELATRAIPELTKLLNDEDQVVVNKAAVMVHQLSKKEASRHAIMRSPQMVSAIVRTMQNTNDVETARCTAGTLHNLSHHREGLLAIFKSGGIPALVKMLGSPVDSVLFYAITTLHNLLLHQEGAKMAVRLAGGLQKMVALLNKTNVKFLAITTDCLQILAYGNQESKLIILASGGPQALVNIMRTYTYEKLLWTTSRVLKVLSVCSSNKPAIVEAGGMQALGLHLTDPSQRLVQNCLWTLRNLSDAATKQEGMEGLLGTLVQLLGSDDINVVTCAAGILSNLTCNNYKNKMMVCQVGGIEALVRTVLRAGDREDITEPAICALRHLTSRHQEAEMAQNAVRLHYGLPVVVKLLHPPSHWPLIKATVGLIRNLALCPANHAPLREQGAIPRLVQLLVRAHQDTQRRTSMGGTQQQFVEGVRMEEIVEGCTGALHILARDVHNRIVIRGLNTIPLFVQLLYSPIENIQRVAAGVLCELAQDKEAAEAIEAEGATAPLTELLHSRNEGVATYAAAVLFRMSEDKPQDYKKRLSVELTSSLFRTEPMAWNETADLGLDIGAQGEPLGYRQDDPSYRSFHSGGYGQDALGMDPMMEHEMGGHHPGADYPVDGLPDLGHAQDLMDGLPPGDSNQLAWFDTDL

[2] = tested on: TCF/LEF luciferase Reporter in DLD1 cells; assay: TCF reporter assay (DLD1 TCF/LEF luciferase reporter, Bright-Glo); type: cell-based
Method in brief: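 Readouts: Bright-Glo luciferase for reporter signal and CellTiter-Glo for cell viability, with absolute IC50 derived. The reporter clone came from lentiviral TCF/LEF-luciferase transduction of DLD1 cells, seeded 5000 cells/well in RPMI with 4% FBS and exposed overnight to serially diluted compounds.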

Solubility in PBS = type: physicochemical
Method in brief: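 Steps: ultracentrifuge the peptide PBS solution, inject the supernatant on HPLC, inject a 50 μM peptide DMSO solution as reference, then calculate solubility as area ratio (PBS/DMSO) × 50 uM.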

[3] = target: T2, full-length beta-Catenin (Uniprot ID P35222) (Homo sapiens, UniProt P35222); assay: Fluorescence polarization IC50 (beta-catenin / 5FAM-TCF4 10-53 competition); type: binding; conditions: read-out: beta-Catenin FP IC50
T2 construct: 10 nM full-length beta-Catenin (Uniprot ID P35222)
T2 sequence (P35222 1-781): T1 sequence (P35222 1-781)

[4] = absolute IC50, read-out: DLD1 reporter assay Abs IC50
[5] = read-out: DLD1 4% Abs IC50, DLD1 4%

Question: Which chromatographic logD (CHI Log D procedure) does the source give for `CC(=O)N1CCC[C@]12CC=CCCCC1(CCCC=CCCCOC(=O)N3CC[C@@](C(=O)N[C@@H](Cc4ccccc4Cl)C(=O)N[C@@H](Cc4csc5ccccc45)C(=O)N[C@@H](CCC(N)=O)C(N)=O)(C3)NC(=O)[C@H](CO)NC(=O)[C@H](Cc3ccccc3)NC(=O)[C@H](C)NC(=O)[C@H](C)NC(=O)[C@H](CC(=O)O)NC(=O)[C@H](CC(=O)O)NC1=O)NC(=O)[C@H](CC(C)(C)C)NC(=O)[C@H](CC(=O)O)NC2=O` (stereo partly drawn) [I-1017, Ac-PL3-Asp-Npg-B5-Asp-Asp-Ala-Ala-Phe-Ser-PyrS2-2C1F-BztA-Gln-NH2] here?
Answer: 2.11

Question: And the IC50 [1]?
Answer: 8.9 µM

Question: What about the IC50 [2, 4] of the same molecule?
Answer: > 20 µM

Question: What about the Solubility (Solubility in PBS; Solubility (uM)) of the same molecule?
Answer: 48 µM (≈ 92.1 µg/mL)

Question: And the IC50 [3]?
Answer: 0.005 µM

Question: For `CC(=O)N1CCC[C@]12CC=CCCCC1(CCCC=CCCCOC(=O)N3CC[C@@](C(=O)N[C@@H](Cc4ccccc4Cl)C(=O)N[C@@H](Cc4csc5ccccc45)C(=O)N[C@@H](CO)C(N)=O)(C3)NC(=O)[C@H](CO)NC(=O)[C@H](Cc3ccccc3)NC(=O)[C@H](C)NC(=O)[C@H](C)NC(=O)[C@H](CC(=O)O)NC(=O)[C@H](CC(=O)O)NC1=O)NC(=O)[C@H](CC(C)(C)C)NC(=O)[C@H](CC(=O)O)NC2=O` (stereo partly drawn) [I-1019, Ac-PL3-Asp-Npg-B5-Asp-Asp-Ala-Ala-Phe-Ser-PyrS2-2C1F-BztA-Ser-NH2], which chromatographic logD (CHI Log D procedure) is on record?
Answer: 2.22

Question: What about the IC50 [1] of the same molecule?
Answer: 9.6 µM

Question: What about the IC50 [2, 4] of the same molecule?
Answer: 8.3 µM

Question: What about the IC50 [2, 5] of the same molecule?
Answer: 7.8 µM

Question: What about the Solubility (Solubility in PBS; Solubility (uM)) of the same molecule?
Answer: 48 µM (≈ 90.2 µg/mL)

Question: What about the IC50 [3] of the same molecule?
Answer: 0.005 µM

Question: Which results are given for `CC(=O)N1CCC[C@]12CC=CCCCC1(CCCC=CCCCOC(=O)N3CC[C@@](C(=O)N[C@@H](Cc4ccccc4Cl)C(=O)N[C@@H](Cc4csc5ccccc45)C(=O)N[C@@H](C(N)=O)[C@H](C)O)(C3)NC(=O)[C@H](CC(N)=O)NC(=O)[C@H](Cc3ccccc3)NC(=O)[C@H](C)NC(=O)[C@H](C)NC(=O)[C@H](CC(=O)O)NC(=O)[C@H](CC(=O)O)NC1=O)NC(=O)[C@H](CC(C)(C)C)NC(=O)[C@H](CC(=O)O)NC2=O` (stereo partly drawn) [I-1028, Ac-PL3-Asp-Npg-B5-Asp-Asp-Ala-Ala-Phe-Asn-PyrS2-2C1F-BztA-dThr-NH2]?
Answer: chromatographic logD (CHI Log D procedure): 2.4; IC50 [1]: 8.7 µM; IC50 [2, 4]: 6.4 µM; IC50 [2, 5]: 3.6 µM; Solubility (Solubility in PBS): 10 µM (≈ 19.2 µg/mL); IC50 [3]: 0.013 µM

Question: Which chromatographic logD (CHI Log D procedure) does the source give for `CC(=O)N1CCC[C@]12CC=CCCCC1(CCCC=CCCCOC(=O)N3CC[C@@](C(=O)N[C@@H](Cc4ccccc4Cl)C(=O)N[C@@H](Cc4csc5ccccc45)C(=O)N[C@@H](C(N)=O)[C@H](C)O)(C3)NC(=O)[C@H](CC(N)=O)NC(=O)[C@H](Cc3ccccc3)NC(=O)[C@H](C)NC(=O)[C@H](C)NC(=O)[C@H](CC(=O)O)NC(=O)[C@H](CC(=O)O)NC1=O)NC(=O)[C@H](CC(C)(C)C)NC(=O)[C@H](CCC(=O)O)NC2=O` (stereo partly drawn) [I-1029, Ac-PL3-Glu-Npg-B5-Asp-Asp-Ala-Ala-Phe-Asn-PyrS2-2C1F-BztA-dThr-NH2] here?
Answer: 2.36

Question: What about the IC50 [1] of the same molecule?
Answer: > 20 µM

Question: And the IC50 [2, 4]?
Answer: > 20 µM

Question: And the Solubility (Solubility in PBS; Solubility (uM))?
Answer: 49 µM (≈ 94.7 µg/mL)

Question: And the IC50 [3]?
Answer: 0.823 µM

Question: With `CC(=O)N1CCC[C@]12CC=CCCCC1(CCCC=CCCCOC(=O)N3CC[C@@](C(=O)N[C@@H](Cc4ccccc4Cl)C(=O)N[C@@H](Cc4csc5ccccc45)C(=O)N[C@@H](C(N)=O)[C@H](C)O)(C3)NC(=O)[C@H](CC(N)=O)NC(=O)[C@H](Cc3ccccc3)NC(=O)[C@H](C)NC(=O)[C@H](C)NC(=O)[C@H](CC(=O)O)NC(=O)[C@H](CCC(=O)O)NC1=O)NC(=O)[C@H](CC(C)(C)C)NC(=O)[C@H](CC(=O)O)NC2=O` (stereo partly drawn) [I-1030, Ac-PL3-Asp-Npg-B5-Glu-Asp-Ala-Ala-Phe-Asn-PyrS2-2C1F-BztA-dThr-NH2] as the molecule, how does the chromatographic logD (CHI Log D procedure) read?
Answer: 2.76

Question: And the IC50 [1]?
Answer: > 20 µM

Question: And the IC50 [2, 4]?
Answer: > 20 µM

Question: And the Solubility (Solubility in PBS; Solubility (uM))?
Answer: 47 µM (≈ 90.9 µg/mL)

Question: What about the IC50 [3] of the same molecule?
Answer: 0.507 µM

Question: For `CC(=O)N1CCC[C@]12CC=CCCCC1(CCCC=CCCCOC(=O)N3CC[C@@](C(=O)N[C@@H](Cc4ccccc4Cl)C(=O)N[C@@H](Cc4csc5ccccc45)C(=O)N[C@@H](C(N)=O)[C@H](C)O)(C3)NC(=O)[C@H](Cc3ccccc3)NC(=O)[C@H](Cc3ccccc3)NC(=O)[C@H](C)NC(=O)[C@H](C)NC(=O)[C@H](CC(=O)O)NC(=O)[C@H](CC(=O)O)NC1=O)NC(=O)[C@H](CC(C)(C)C)NC(=O)[C@H](CC(=O)O)NC2=O` (stereo partly drawn) [I-1034, Ac-PL3-Asp-Npg-B5-Asp-Asp-Ala-Ala-Phe-Phe-PyrS2-2C1F-BztA-dThr-NH2], which chromatographic logD (CHI Log D procedure) is on record?
Answer: 2.71

Question: And the IC50 [1]?
Answer: 9.5 µM

Question: And the IC50 [2, 4]?
Answer: 11.9 µM

Question: What about the IC50 [2, 5] of the same molecule?
Answer: 4 µM

Question: And the Solubility (Solubility in PBS; Solubility (uM))?
Answer: 12 µM (≈ 23.4 µg/mL)

Question: What about the IC50 [3] of the same molecule?
Answer: 0.027 µM

Question: Which chromatographic logD (CHI Log D procedure) does the source give for `CC(=O)N1CCC[C@]12CC=CCCCC1(CCCC=CCCCOC(=O)N3CC[C@@](C(=O)N[C@@H](Cc4ccccc4Cl)C(=O)N[C@@H](Cc4csc5ccccc45)C(=O)N[C@@H](C(N)=O)[C@H](C)O)(C3)NC(=O)[C@H](CC(C)C)NC(=O)[C@H](Cc3ccccc3)NC(=O)[C@H](C)NC(=O)[C@H](C)NC(=O)[C@H](CC(=O)O)NC(=O)[C@H](CC(=O)O)NC1=O)NC(=O)[C@H](CC(C)(C)C)NC(=O)[C@H](CC(=O)O)NC2=O` (stereo partly drawn) [I-1035, Ac-PL3-Asp-Npg-B5-Asp-Asp-Ala-Ala-Phe-Leu-PyrS2-2C1F-BztA-dThr-NH2] here?
Answer: 2.63

Question: And the IC50 [1]?
Answer: 10.2 µM

Question: What about the IC50 [2, 4] of the same molecule?
Answer: > 20 µM

Question: What about the Solubility (Solubility in PBS; Solubility (uM)) of the same molecule?
Answer: 28 µM (≈ 53.7 µg/mL)

Question: And the IC50 [3]?
Answer: 0.021 µM

Question: Which chromatographic logD (CHI Log D procedure) does the source give for `CC(=O)N1CCC[C@]12CC=CCCCC1(CCCC=CCCCOC(=O)N3CC[C@@](C(=O)N[C@@H](Cc4ccccc4Cl)C(=O)N[C@@H](Cc4csc5ccccc45)C(=O)N[C@@H](CCC(N)=O)C(N)=O)(C3)NC(=O)[C@H](CO)NC(=O)[C@H](Cc3ccccc3)NC(=O)[C@H](C)NC(=O)[C@H](C)NC(=O)[C@H](CC(=O)O)NC(=O)[C@H](CC(=O)O)NC1=O)NC(=O)[C@H](CC1CCCCC1)NC(=O)[C@H](CC(=O)O)NC2=O` (stereo partly drawn) [I-1044, Ac-PL3-Asp-Cha-B5-Asp-Asp-Ala-Ala-Phe-Ser-PyrS2-2C1F-BztA-Gln-NH2] here?
Answer: 2.32

Question: And the IC50 [1]?
Answer: 17.6 µM

Question: And the IC50 [2, 4]?
Answer: 20 µM

Question: What about the IC50 [2, 5] of the same molecule?
Answer: 14.5 µM

Question: And the Solubility (Solubility in PBS; Solubility (uM))?
Answer: 43 µM (≈ 83.7 µg/mL)

Question: What about the IC50 [3] of the same molecule?
Answer: 0.005 µM

Question: For `CC(=O)N1CCC[C@]12CC=CCCCC1(CCCC=CCCCOC(=O)N3CC[C@@](C(=O)N[C@@H](Cc4ccccc4Cl)C(=O)N[C@@H](Cc4csc5ccccc45)C(=O)N[C@@H](CO)C(N)=O)(C3)NC(=O)[C@H]([C@@H](C)O)NC(=O)[C@H](Cc3ccccc3)NC(=O)[C@H](C)NC(=O)[C@H](C)NC(=O)[C@H](CC(=O)O)NC(=O)[C@H](CC(=O)O)NC1=O)NC(=O)[C@H](CC1CCCCC1)NC(=O)[C@H](CC(=O)O)NC2=O` (stereo partly drawn) [I-1048, Ac-PL3-Asp-Cha-B5-Asp-Asp-Ala-Ala-Phe-Thr-PyrS2-2C1F-BztA-Ser-NH2], which chromatographic logD (CHI Log D procedure) is on record?
Answer: 2.52

Question: And the IC50 [1]?
Answer: 8.8 µM

Question: And the IC50 [2, 4]?
Answer: 10.5 µM

Question: What about the Solubility (Solubility in PBS; Solubility (uM)) of the same molecule?
Answer: 42 µM (≈ 80.6 µg/mL)

Question: And the IC50 [3]?
Answer: 0.005 µM
